Measured values from US20140045805A1, “Fragrance Compositions and Other Compositions Which Contain Naturally Occurring Substances Found in Corals” (priority 2007, published 2014).
Read-outs that look alike come from different tables or passages of the source.

What was measured:
[1] = system: peripheral nasal chemosensory receptors; conditions: androstadienone 27 picograms, muricin aglycone 30 picograms; adapted from Monti-Bloch et al. (1994); cited from earlier work
humans = conditions: Grosser et al., 2000, cited from earlier work; for Effect on negative affect / negativity: administered nasally to humans

SMILES | melting point [°C] | Depolarization of the electrogram of peripheral nasal chemosensory receptors [1] | Effect on negative affect / negativity (humans) | Effect on negative affect / negativity (humans; listed as Androsta-4,16-dien-3-one) | Effect on social warmth and friendliness, personal well-being and arousal/excitement (humans; humans)
C=C[C@H]1CC[C@H]2[C@@H]3CC[C@H]4CC(=O)C=C[C@]4(C)[C@H]3CC[C@]12C | 124 to 126 | – | – | – | –
C[C@@]12C=CC[C@H]1[C@@H]1CCC3=CC(=O)CC[C@]3(C)[C@H]1CC2 [androstadienone, androsta-4,16-dien-3-one] | – | robust depolarization | decreased negativity | reduction of negative affect | no effect
